The record followed here is patent US12595230B2, “Substituted 6,7-dihydro-5H-benzo[7]annulene compounds and their derivatives, processes for their preparation and therapeutic uses thereof” (Sanofi, priority 2020, dated 2026).

This test deals with T1, ERα (Homo sapiens, UniProt P03372).
T1 construct: host or cells: MCF7
T1 sequence (P03372 1-595): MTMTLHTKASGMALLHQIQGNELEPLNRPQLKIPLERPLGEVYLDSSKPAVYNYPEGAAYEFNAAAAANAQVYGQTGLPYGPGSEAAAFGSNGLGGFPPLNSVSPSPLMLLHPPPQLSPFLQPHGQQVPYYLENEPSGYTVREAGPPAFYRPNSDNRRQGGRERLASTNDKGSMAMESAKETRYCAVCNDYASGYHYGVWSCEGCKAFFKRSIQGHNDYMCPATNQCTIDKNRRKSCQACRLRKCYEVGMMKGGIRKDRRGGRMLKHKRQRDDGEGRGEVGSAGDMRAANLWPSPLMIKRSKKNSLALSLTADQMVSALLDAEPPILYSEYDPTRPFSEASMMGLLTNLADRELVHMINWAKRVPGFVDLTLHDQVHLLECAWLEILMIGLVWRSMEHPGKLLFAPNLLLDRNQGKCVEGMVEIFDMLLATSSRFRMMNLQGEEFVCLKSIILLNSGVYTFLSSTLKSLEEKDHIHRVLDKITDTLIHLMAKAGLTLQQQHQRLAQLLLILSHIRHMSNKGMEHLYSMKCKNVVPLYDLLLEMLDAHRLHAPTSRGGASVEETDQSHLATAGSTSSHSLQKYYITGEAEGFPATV
Put plainly: Estrogen receptor degradation activity: breast cancer cell ERα in cell western assay (MCF7 cells). The format is cell-based. The settings on record: for % Degradation At 0.3 μM: 4 hours, relative to fulvestrant 0.1 μM positive control; for DC50: read-out: Degradation IC50. The method in brief:
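Compounds were applied to MCF7 cells in stripped-serum, phenol red-free medium for 4 h at final 0.3–0.0000018 μM, with fulvestrant (0.1 μM) as control. Value: IC50 (nM) for 50% ERα degradation.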

The mark [1] stands for this setting: 4 hours post compound addition, concentration which degrades 50% of the estrogen receptor.

One may read the IC50 as the point on the concentration scale where inhibition reaches its midpoint. In the case of `O=C(O)c1ccc2c(c1)CCCC(c1cccc(F)c1C(F)(F)F)=C2c1ccc(CC2CN(CCCF)C2)cc1` [Example 232, 8-(3-fluoro-2-(trifluoromethyl)phenyl)-9-(4-((1-(3-fluoropropyl)azetidin-3-yl)methyl)phenyl)-6,7-dihydro-5H-benzo[7]annulene-3-carboxylic acid], the “% Degradation At 0.3 μM” value was found to be 88%. This compound also registered a 50% inhibitory concentration (IC50) under setting [1] of 0.1 nM.

For `O=C(O)c1ccc2c(c1Cl)CCCC(c1ccc(Cl)cc1Cl)=C2c1ccc(CC2CN(CCCF)C2)cc1` [Example 247, 4-chloro-8-(2,4-dichlorophenyl)-9-(4-((1-(3-fluoropropyl)azetidin-3-yl)methyl)phenyl)-6,7-dihydro-5H-benzo[7]annulene-3-carboxylic acid], the “% Degradation At 0.3 μM” value is reported as 97%. In addition, the DC50 under setting [1] was determined as 1.8 nM.

With `CC1CCc2cc(C(=O)O)ccc2C(c2ccc(CC3CN(CCCF)C3)cc2)=C1c1ccc(F)cc1` (racemic) [Example 325, 8-(4-fluorophenyl)-9-(4-((1-(3-fluoropropyl)azetidin-3-yl)methyl)phenyl)-7-methyl-6,7-dihydro-5H-benzo[7]annulene-3-carboxylic acid], the “% Degradation At 0.3 μM” value worked out at 89%. Also, the DC50 under setting [1] amounted to 0.5 nM.

As to `Cc1ccc(C2=C(c3ccc(CC4CN(CCCF)C4)cc3)c3ccc(C(=O)O)cc3CCC2)c(C(F)(F)F)c1.Cl` [Example 213, 9-(4-((1-(3-fluoropropyl)azetidin-3-yl)methyl)phenyl)-8-(4-methyl-2-(trifluoromethyl)phenyl)-6,7-dihydro-5H-benzo[7]annulene-3-carboxylic acid hydrochloride], the “% Degradation At 0.3 μM” value came out at 94%. The DC50 under setting [1] was determined as 0.2 nM.

For the compound `FCCCN1CC(Cc2ccc(C3=C(c4ccccc4Cl)CCCc4ccccc43)cc2)C1` [Example 304, 3-(4-(8-(2-chlorophenyl)-6,7-dihydro-5H-benzo[7]annulen-9-yl)benzyl)-1-(3-fluoropropyl)azetidine], the “% Degradation At 0.3 μM” value is 89%. The DC50 under setting [1] turned out to be 17.4 nM.

For the compound `O=C(O)c1ccc2c(c1)CCCC(C1CCOCC1)=C2c1ccc(CC2CN(CCCF)C2)cc1` [Example 38, 9-(4-((1-(3-fluoropropyl)azetidin-3-yl)methyl)phenyl)-8-(tetrahydro-2H-pyran-4-yl)-6,7-dihydro-5H-benzo[7]annulene-3-carboxylic acid], the “% Degradation At 0.3 μM” value is 83%. Further, the DC50 under setting [1] is 7 nM.

Consider `Cc1cc(F)ccc1C1=C(c2ccc(CC3CN(CCCF)C3)cc2)c2ccc(C(=O)O)cc2CCC1` [Example 33, 8-(4-fluoro-2-methylphenyl)-9-(4-((1-(3-fluoropropyl)azetidin-3-yl)methyl)phenyl)-6,7-dihydro-5H-benzo[7]annulene-3-carboxylic acid], for which the “% Degradation At 0.3 μM” value was 89%. The DC50 under setting [1] worked out at 0.2 nM.

For the compound `CC1CCc2cc(C(=O)O)ccc2C(c2ccc(CC3CN(CCCF)C3)cc2)=C1c1ccc(Cl)cc1Cl` (single isomer, unassigned) [Example 302, 8-(2,4-dichlorophenyl)-9-(4-((1-(3-fluoropropyl)azetidin-3-yl)methyl)phenyl)-7-methyl-6,7-dihydro-5H-benzo[7]annulene-3-carboxylic acid], the “% Degradation At 0.3 μM” value stood at 90%. Besides, under setting [1], the DC50 amounted to 0.6 nM.

`O=C(O)c1ccc2c(c1)SCC(c1ccc(Cl)cc1Cl)=C2c1ccc(CC2CN(CCCF)C2)cc1` [Example 308, 3-(2,4-dichlorophenyl)-4-(4-((1-(3-fluoropropyl)azetidin-3-yl)methyl)phenyl)-2H-thiochromene-7-carboxylic acid]: the “% Degradation At 0.3 μM” value amounted to 94%. Besides, the DC50 under setting [1] was found to be 1.4 nM.

As to `COc1ccc(C2=C(c3ccc(CC4CN(CCCF)C4)cc3)c3ccc(C(=O)O)cc3CCC2)c(Cl)c1` [Example 24, 8-(2-chloro-4-methoxyphenyl)-9-(4-((1-(3-fluoropropyl)azetidin-3-yl)methyl)phenyl)-6,7-dihydro-5H-benzo[7]annulene-3-carboxylic acid], the “% Degradation At 0.3 μM” value was 92%. Besides, the DC50 under setting [1] came to 0.4 nM.

For `O=C(O)c1ccc2c(c1)CCCC(c1ccc(Cl)cc1Cl)=C2c1ccc(C(F)C2CN(CCCF)C2)cc1` (single isomer, unassigned) [Example 44, 8-(2,4-dichlorophenyl)-9-(4-(fluoro(1-(3-fluoropropyl)azetidin-3-yl)methyl)phenyl)-6,7-dihydro-5H-benzo[7]annulene-3-carboxylic acid], the “% Degradation At 0.3 μM” value was determined as 90%. For the same compound, the DC50 under setting [1] stood at 0.5 nM.

Turning to `O=C(O)c1c(F)cc2c(c1F)CCCC(c1ccc(F)cc1Cl)=C2c1ccc(CC2CN(CCCF)C2)cc1` [Example 216, 8-(2-chloro-4-fluorophenyl)-2,4-difluoro-9-(4-((1-(3-fluoropropyl)azetidin-3-yl)methyl)phenyl)-6,7-dihydro-5H-benzo[7]annulene-3-carboxylic acid], the “% Degradation At 0.3 μM” value is on record as 83%. Further, the DC50 under setting [1] came to 13.2 nM.

For `Cc1c(C2=C(c3ccc(CC4CN(CCC(F)F)C4)cc3)c3ccc(C(=O)O)cc3CCC2)cccc1C(F)(F)F` [Example 287, 9-(4-((1-(3,3-difluoropropyl)azetidin-3-yl)methyl)phenyl)-8-(2-methyl-3-(trifluoromethyl)phenyl)-6,7-dihydro-5H-benzo[7]annulene-3-carboxylic acid], the “% Degradation At 0.3 μM” value was determined as 86%. Also, the DC50 under setting [1] came to 0.4 nM.

Turning to `O=C(O)c1ccc2c(c1)CCCC(c1ccc(F)cc1F)=C2c1ccc(CC2CN(CCC(F)F)C2)cc1` [Example 281, 8-(2,4-difluorophenyl)-9-(4-((1-(3,3-difluoropropyl)azetidin-3-yl)methyl)phenyl)-6,7-dihydro-5H-benzo[7]annulene-3-carboxylic acid], the “% Degradation At 0.3 μM” value came to 84%. Also, the DC50 under setting [1] turned out to be 0.4 nM.

Turning to `Cc1c(C2=C(c3ccc(CC4CN(CCC(F)(F)F)C4)cc3)c3ccc(C(=O)O)cc3CCC2)cccc1C(F)(F)F` [Example 256, 8-(2-methyl-3-(trifluoromethyl)phenyl)-9-(4-((1-(3,3,3-trifluoropropyl)azetidin-3-yl)methyl)phenyl)-6,7-dihydro-5H-benzo[7]annulene-3-carboxylic acid], the “% Degradation At 0.3 μM” value is 82%. The DC50 under setting [1] came to 1 nM.

As to `O=C(O)c1ccc2c(c1)CCCC(c1ccc(Cl)cc1Cl)=C2c1ccc(C(F)C2CN(CCCF)C2)cc1` (single isomer, unassigned) [Example 43, 8-(2,4-dichlorophenyl)-9-(4-(fluoro(1-(3-fluoropropyl)azetidin-3-yl)methyl)phenyl)-6,7-dihydro-5H-benzo[7]annulene-3-carboxylic acid], the “% Degradation At 0.3 μM” value is reported as 90%. Under setting [1], the DC50 stood at 0.4 nM.

Take `O=C(O)c1ccc2c(c1)CCCC(c1ccc(Cl)cc1Cl)=C2c1ccc(C(O)C2CN(CCCF)C2)cc1` (single isomer, unassigned) [Example 42, 8-(2,4-dichlorophenyl)-9-(4-((1-(3-fluoropropyl)azetidin-3-yl)(hydroxy)methyl)phenyl)-6,7-dihydro-5H-benzo[7]annulene-3-carboxylic acid]: the “% Degradation At 0.3 μM” value is recorded as 94%. Under setting [1], the DC50 came out at 3.3 nM.

With `Cc1ccc(C2=C(c3ccc(CC4CN(CCCF)C4)cc3)c3cc(F)c(C(=O)O)c(F)c3CCC2)c(Cl)c1` [Example 217, 8-(2-chloro-4-methylphenyl)-2,4-difluoro-9-(4-((1-(3-fluoropropyl)azetidin-3-yl)methyl)phenyl)-6,7-dihydro-5H-benzo[7]annulene-3-carboxylic acid], the “% Degradation At 0.3 μM” value amounted to 86%. For the same compound, the DC50 under setting [1] amounted to 6.2 nM.

As to `O=C(O)c1ccc2c(c1)CCCC(c1ccc(Cl)cc1Cl)=C2c1ccc(C(F)(F)C2CN(CCCF)C2)cc1` [Example 40, 8-(2,4-dichlorophenyl)-9-(4-(difluoro(1-(3-fluoropropyl)azetidin-3-yl)methyl)phenyl)-6,7-dihydro-5H-benzo[7]annulene-3-carboxylic acid], the “% Degradation At 0.3 μM” value is listed as 91%. In addition, the DC50 under setting [1] was 0.4 nM.

On to `O=C(O)c1ccc2c(c1)CCCC(c1ncc(Cl)cc1C(F)(F)F)=C2c1ccc(CC2CN(CCCF)C2)cc1` [Example 218, 8-(5-chloro-3-(trifluoromethyl)pyridin-2-yl)-9-(4-((1-(3-fluoropropyl)azetidin-3-yl)methyl)phenyl)-6,7-dihydro-5H-benzo[7]annulene-3-carboxylic acid], for which the “% Degradation At 0.3 μM” value is reported as 92%. Also, the DC50 under setting [1] came out at 0.5 nM.

For `Cc1cc(C(F)(F)F)ccc1C1=C(c2ccc(CC3CN(CCCF)C3)cc2)c2ccc(C(=O)O)cc2CCC1` [Example 17, 9-(4-((1-(3-fluoropropyl)azetidin-3-yl)methyl)phenyl)-8-(2-methyl-4-(trifluoromethyl)phenyl)-6,7-dihydro-5H-benzo[7]annulene-3-carboxylic acid], the “% Degradation At 0.3 μM” value is on record as 90%. For the same compound, the DC50 under setting [1] came out at 0.3 nM.
